From patent US20110039721A1, “METHOD FOR PREDICTION ABOUT CARCINOGENICITY OF SUBSTANCE IN RODENT” (Chemicals Evaluation and Research Institute, priority 2007, published 2011)

Legend:
[1] = classification of the substance (M+/M−); cited from earlier work
rodent = conditions: in vivo; cited from earlier work
liver = conditions: in vivo; cited from earlier work
[2] = system: mRNA expressed from the genes (A) to (D) in rat liver; assay: Behavior of genes (mRNA expression level, oligo-DNA microarray) in rat liver after 28-day oral administration; assay type: in vivo; conditions: mRNA vs vehicle control group
Outline: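 Liver mRNA measured by oligo-DNA microarray after 28 days of once-daily oral gavage in 5-week-old male F344 rats (n=4 per group), with vehicle controls given equal solvent volume. Significance threshold: 1.5-fold up or down versus control, with changes opposite in direction to other carcinogens counted as not significant.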

[3] = gene group (A), Unigene No. Rn.167075
[4] = gene group (C), Unigene No. Rn.120914

C=C(C)[C@H]1CC=C(C)CC1 [TS024, D-Limonene]
Mutagenicity by Ames test [1]: M−

O=C(O)C1C(C(=O)O)C2(Cl)C(Cl)=C(Cl)C1(Cl)C2(Cl)Cl (stereo not drawn) [TS078, Chlorendic acid]
Carcinogenicity (rodent): C+ | Liver carcinogenicity (liver): Cr+ | Behavior of gene caused by administration of chemical substance, Gene No. 4846 ([2]; gene group (A), Unigene No. Rn.144554): − | Behavior of gene caused by administration of chemical substance, Gene No. 2026 [2, 3]: + | Behavior of gene caused by administration of chemical substance, Gene No. 4218 [2, 3]: − | Behavior of gene caused by administration of chemical substance, Gene No. 6182 ([2]; gene group (A), Unigene No. Rn.5834): − | Behavior of gene caused by administration of chemical substance, Gene No. 5600 ([2]; gene group (A), Unigene No. Rn.9836): − | Behavior of gene caused by administration of chemical substance, Gene No. 1494 ([2]; gene group (B), Unigene No. Rn.1430): + | Behavior of gene caused by administration of chemical substance, Gene No. 2045 ([2]; gene group (B), Unigene No. Rn.19329): + | Behavior of gene caused by administration of chemical substance, Gene No. 2203 ([2]; gene group (B), Unigene No. Rn.21240): + | Behavior of gene caused by administration of chemical substance, Gene No. 533 ([2]; gene group (C), Unigene No. Rn.106184): − | Behavior of gene caused by administration of chemical substance, Gene No. 725 ([2]; gene group (C), Unigene No. Rn.108075): − | Behavior of gene caused by administration of chemical substance, Gene No. 1163 ([2]; gene group (C), Unigene No. Rn.11766): + | Behavior of gene caused by administration of chemical substance, Gene No. 4973 ([2]; gene group (C), Unigene No. Rn.118529): + | Behavior of gene caused by administration of chemical substance, Gene No. 4095 ([2]; gene group (C), Unigene No. Rn.119024): − | Behavior of gene caused by administration of chemical substance, Gene No. 1334 [2, 4]: − | Behavior of gene caused by administration of chemical substance, Gene No. 6620 [2, 4]: − | Behavior of gene caused by administration of chemical substance, Gene No. 6303 ([2]; gene group (C), Unigene No. Rn.123063): − | Behavior of gene caused by administration of chemical substance, Gene No. 5878 ([2]; gene group (C), Unigene No. Rn.143213): − | Behavior of gene caused by administration of chemical substance, Gene No. 1131 ([2]; gene group (C), Unigene No. Rn.144946): − | Behavior of gene caused by administration of chemical substance, Gene No. 1562 ([2]; gene group (C), Unigene No. Rn.14744): − | Behavior of gene caused by administration of chemical substance, Gene No. 1741 ([2]; gene group (C), Unigene No. Rn.1647): − | Behavior of gene caused by administration of chemical substance, Gene No. 893 ([2]; gene group (C), Unigene No. Rn.164817): − | Behavior of gene caused by administration of chemical substance, Gene No. 6026 ([2]; gene group (C), Unigene No. Rn.167685): − | Behavior of gene caused by administration of chemical substance, Gene No. 154 ([2]; gene group (C), Unigene No. Rn.185941): − | Behavior of gene caused by administration of chemical substance, Gene No. 1993 ([2]; gene group (C), Unigene No. Rn.18728): − | Behavior of gene caused by administration of chemical substance, Gene No. 813 ([2]; gene group (C), Unigene No. Rn.201760): − | Behavior of gene caused by administration of chemical substance, Gene No. 2494 ([2]; gene group (C), Unigene No. Rn.23969): − | Behavior of gene caused by administration of chemical substance, Gene No. 2546 ([2]; gene group (C), Unigene No. Rn.24561): − | Behavior of gene caused by administration of chemical substance, Gene No. 3776 ([2]; gene group (C), Unigene No. Rn.43232): − | Behavior of gene caused by administration of chemical substance, Gene No. 3929 ([2]; gene group (C), Unigene No. Rn.4620): − | Behavior of gene caused by administration of chemical substance, Gene No. 1119 ([2]; gene group (C), Unigene No. Rn.9757): − | Behavior of gene caused by administration of chemical substance, Gene No. 6742 ([2]; gene group (C), Unigene No. Rn.9779): − | Behavior of gene caused by administration of chemical substance, Gene No. 5634 ([2]; gene group (C), Unigene No. Rn.9862): + | Behavior of gene caused by administration of chemical substance, Gene No. 5726 ([2]; gene group (D), Unigene No. Rn.9939): −
